We go through 20 compounds from patent publication US12503438B2, “Compounds for the treatment of kinase-dependent disorders” (Exelixis, Inc., priority 2019, dated 2025).

One experiment addresses KDR (Homo sapiens, UniProt P35968). The experiment is described as follows: KDR autophosphorylation ELISA in HUVEC cells. In kind it is cell-based. Also on record: endogenous in cells; host or cells: HUVEC (Lonza #C2519A). Conditions: cellular activity, VEGF165-stimulated, phospho-KDR ELISA. On the procedure:
Human umbilical vein endothelial cells or HUVEC (Lonza #C2519A) were seeded at 2×10^4 cells/well onto 96-well plates (Corning #3904), in EGM-2 growth medium (Lonza #CC-3162) containing 1% Penicillin Streptomycin (Thermo Fisher #15140-122). HUVEC cells were incubated at 37° C., 5% CO2 for 24 h and then starved for 24 h in serum-free EBM-2 basal medium (Lonza #CC-3156) containing 1% Penicillin Streptomycin. Test compounds were serially diluted to produce an 8-point dose curve in fresh serum-free medium to a final concentration of 0.3% DMSO (vehicle) and added to the cells and incubated for 1 h. Cells were then stimulated with 100 ng/mL recombinant human VEGF165 (R&D Systems #293-VE-500) for 5 min, washed with cold PBS, and immediately lysed with 130 μL of cold 1× lysis buffer [20 mM Tris, 137 mM sodium chloride, 2 mM EDTA, 10% glycerol, 1% NP-40 alternative, 1 mM activated sodium orthovanadate, 1 mM PefaBloc SC (Sigma-Aldrich #11429868001), protease/phosphatase inhibitor tablet (Thermo Fisher #A32959)]. Lysates were collected and 100 μL/well added into the human phospho-KDR DuoSet IC ELISA (R&D Systems #DYC1766-2). Assay was performed according to manufacturer's instructions and sample phospho-KDR concentrations were extrapolated using human phospho-KDR control (R&D Systems #841421) as a standard. Positive control wells (100% activity) contained VEGF165-stimulated, DMSO-treated cell lysates. Negative control wells (0% activity) contained non-stimulated cell lysates. IC50 values were calculated by nonlinear regression analysis using a 4-parameter logistic curve fit in ActivityBase XE (IDBS).
(In an ELISA, binding on a coated surface is turned into a signal by an enzyme label.)

Another experiment deals with Met (Homo sapiens, UniProt P08581). The experiment is described as follows: Met autophosphorylation ELISA in PC-3 cells. More on the design: endogenous in cells; host or cells: PC-3 prostate cancer cells (ATCC #CRL-1435). Particulars: cellular activity, HGF-stimulated, phospho-Met ELISA, read-out: c-Met IC50. In kind it is cell-based. On the procedure:
PC-3 prostate cancer cells (ATCC #CRL-1435) were seeded at 4×10^4 cells/well onto 24-well plates (Greiner #662165), in DMEM (Thermo Fisher #11995-040) containing 10% FBS (Thermo Fisher #26140-079), 1% MEM NEAA (Thermo Fisher #11140-050), 1% GlutaMax (Thermo Fisher #35050-061), and 1% Penicillin Streptomycin (Thermo Fisher #15140-122). PC-3 cells were incubated at 37° C., 5% CO2 for 24 h and then starved for 3 h in serum-free medium. Test compounds were serially diluted to produce an 8-point dose curve in fresh serum-free medium to a final concentration of 0.3% DMSO (vehicle) and added to the cells and incubated for 1 h. Cells were then stimulated with 100 ng/mL recombinant human HGF (R&D Systems #294-HG-250) for 10 min, washed with cold PBS and immediately lysed with 130 μL of cold 1× lysis buffer [20 mM Tris, 137 mM sodium chloride, 2 mM EDTA, 10% glycerol, 1% NP-40 alternative, 1 mM activated sodium orthovanadate, 1 mM PefaBloc SC (Sigma-Aldrich #11429868001), protease/phosphatase inhibitor tablet (Thermo Fisher #A32959)]. Lysates were clarified by centrifugation and 100 μL/well added into the PathScan phospho-Met (panTyr) Sandwich ELISA (Cell Signaling Technology #7333). Assay was performed according to manufacturer's instructions. Positive control wells (100% activity) contained HGF-stimulated, DMSO-treated cell lysates. Negative control wells (0% activity) contained HGF-stimulated, reference inhibitor-treated cell lysates. IC50 values were calculated by nonlinear regression analysis using a 4-parameter logistic curve fit in ActivityBase XE (IDBS).

Chain of KDR (P35968 20-1356): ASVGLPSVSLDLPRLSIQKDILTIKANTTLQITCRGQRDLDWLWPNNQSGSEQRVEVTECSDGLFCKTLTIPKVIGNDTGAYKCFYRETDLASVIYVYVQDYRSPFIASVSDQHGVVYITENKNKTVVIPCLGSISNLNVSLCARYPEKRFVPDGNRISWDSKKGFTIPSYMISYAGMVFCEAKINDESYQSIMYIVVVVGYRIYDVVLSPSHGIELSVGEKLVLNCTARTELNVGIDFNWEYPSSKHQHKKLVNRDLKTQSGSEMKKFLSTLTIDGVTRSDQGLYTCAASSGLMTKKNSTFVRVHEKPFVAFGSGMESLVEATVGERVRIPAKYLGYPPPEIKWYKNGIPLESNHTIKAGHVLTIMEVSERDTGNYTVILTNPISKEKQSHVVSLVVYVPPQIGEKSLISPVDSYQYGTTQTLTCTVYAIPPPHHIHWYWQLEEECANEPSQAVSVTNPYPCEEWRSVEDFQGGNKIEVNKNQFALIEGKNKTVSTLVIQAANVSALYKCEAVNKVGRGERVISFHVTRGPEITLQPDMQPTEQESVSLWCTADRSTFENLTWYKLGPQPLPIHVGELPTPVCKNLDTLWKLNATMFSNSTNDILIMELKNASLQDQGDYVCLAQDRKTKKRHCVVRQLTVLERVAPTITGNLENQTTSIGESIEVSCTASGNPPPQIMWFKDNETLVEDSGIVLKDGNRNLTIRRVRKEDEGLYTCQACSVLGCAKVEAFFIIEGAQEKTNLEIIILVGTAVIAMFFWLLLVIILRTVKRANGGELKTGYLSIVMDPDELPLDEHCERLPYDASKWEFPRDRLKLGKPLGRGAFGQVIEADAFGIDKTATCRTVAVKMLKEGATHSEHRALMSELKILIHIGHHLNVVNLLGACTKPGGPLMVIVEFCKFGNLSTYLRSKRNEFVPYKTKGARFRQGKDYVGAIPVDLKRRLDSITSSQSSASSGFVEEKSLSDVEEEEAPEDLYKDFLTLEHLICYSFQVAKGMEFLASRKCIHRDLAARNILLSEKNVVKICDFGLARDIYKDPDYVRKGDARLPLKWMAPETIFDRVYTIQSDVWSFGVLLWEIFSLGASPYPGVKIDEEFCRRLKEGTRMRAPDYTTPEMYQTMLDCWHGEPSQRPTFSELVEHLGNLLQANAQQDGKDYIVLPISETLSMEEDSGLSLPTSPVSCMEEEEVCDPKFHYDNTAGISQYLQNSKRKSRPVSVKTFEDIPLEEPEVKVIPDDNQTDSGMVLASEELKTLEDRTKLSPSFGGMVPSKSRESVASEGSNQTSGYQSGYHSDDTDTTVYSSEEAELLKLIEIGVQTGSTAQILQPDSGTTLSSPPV
Chain of Met (P08581 25-1390): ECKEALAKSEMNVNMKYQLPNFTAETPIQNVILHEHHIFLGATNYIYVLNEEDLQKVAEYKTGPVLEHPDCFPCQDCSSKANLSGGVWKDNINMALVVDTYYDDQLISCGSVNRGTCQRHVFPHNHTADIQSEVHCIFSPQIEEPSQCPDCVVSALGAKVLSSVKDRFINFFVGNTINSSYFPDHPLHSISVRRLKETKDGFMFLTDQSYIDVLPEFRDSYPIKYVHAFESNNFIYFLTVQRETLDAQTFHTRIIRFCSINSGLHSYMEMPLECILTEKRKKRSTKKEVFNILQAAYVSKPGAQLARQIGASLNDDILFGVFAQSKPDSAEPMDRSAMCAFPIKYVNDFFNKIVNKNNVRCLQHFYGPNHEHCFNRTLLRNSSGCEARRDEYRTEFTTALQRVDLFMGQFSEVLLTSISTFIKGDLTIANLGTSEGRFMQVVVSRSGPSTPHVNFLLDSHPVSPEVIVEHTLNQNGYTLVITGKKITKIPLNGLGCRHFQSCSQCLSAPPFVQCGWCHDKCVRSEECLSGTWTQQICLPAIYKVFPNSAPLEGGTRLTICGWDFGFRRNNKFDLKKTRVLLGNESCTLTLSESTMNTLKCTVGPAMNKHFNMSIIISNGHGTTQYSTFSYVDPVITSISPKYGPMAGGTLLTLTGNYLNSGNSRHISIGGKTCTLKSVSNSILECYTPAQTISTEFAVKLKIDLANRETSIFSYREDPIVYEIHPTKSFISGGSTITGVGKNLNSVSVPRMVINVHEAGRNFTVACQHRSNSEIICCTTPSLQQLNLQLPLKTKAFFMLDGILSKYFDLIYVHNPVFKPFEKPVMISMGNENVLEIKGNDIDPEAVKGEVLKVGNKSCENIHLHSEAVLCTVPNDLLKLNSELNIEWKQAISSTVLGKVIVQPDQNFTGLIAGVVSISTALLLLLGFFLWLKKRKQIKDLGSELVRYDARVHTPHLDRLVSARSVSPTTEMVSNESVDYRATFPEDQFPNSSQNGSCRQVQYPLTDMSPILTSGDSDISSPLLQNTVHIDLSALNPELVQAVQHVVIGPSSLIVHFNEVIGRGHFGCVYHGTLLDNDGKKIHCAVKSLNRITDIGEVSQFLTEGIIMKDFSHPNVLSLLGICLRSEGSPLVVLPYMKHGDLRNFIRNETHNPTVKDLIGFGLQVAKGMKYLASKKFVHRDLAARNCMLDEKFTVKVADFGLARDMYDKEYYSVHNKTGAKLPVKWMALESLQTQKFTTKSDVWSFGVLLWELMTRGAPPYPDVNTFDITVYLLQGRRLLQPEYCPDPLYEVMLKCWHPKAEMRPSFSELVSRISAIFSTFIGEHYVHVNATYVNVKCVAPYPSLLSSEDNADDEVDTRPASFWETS

Broadly, the IC50 is the midpoint of a concentration-inhibition curve. Consider `CN1CCN(c2cc(-c3ccc4c(Oc5ccc(NC(=O)C6(C(=O)Nc7ccc(F)cc7)CC6)cc5)ccnc4c3)ccn2)CC1` [Compound 111, 1-N′-(4-Fluorophenyl)-1-N-[4-[7-[2-(4-methylpiperazin-1-yl)pyridin-4-yl]quinolin-4-yl]oxyphenyl]cyclopropane-1,1-dicarboxamide], for which the results for the IC50 on KDR and at Met were 10 to 100 nM and 100 to 300 nM, respectively.
With `CC(C)Oc1ccc(-c2ccc3c(Oc4ccc(NC(=O)C5(C(=O)Nc6ccc(F)cc6)CC5)cc4)ccnc3c2)cn1` [Compound 50, 1-N′-(4-Fluorophenyl)-1-N-[4-[7-(6-propan-2-yloxypyridin-3-yl)quinolin-4-yl]oxyphenyl]cyclopropane-1,1-dicarboxamide], the IC50 at Met fell in the range of 100 to 300 nM.
For `O=C(Nc1ccc(F)cc1)C1(C(=O)Nc2ccc(Oc3ccnc4cc(-c5cnc6[nH]ncc6c5)ccc34)cc2)CC1` [Compound 39, 1-N′-(4-Fluorophenyl)-1-N-[4-[7-(1H-pyrazolo[3,4-b]pyridin-5-yl)quinolin-4-yl]oxyphenyl]cyclopropane-1,1-dicarboxamide], the IC50 against KDR and on Met was 10 to 100 nM throughout.
Turning to `N#Cc1cc(-c2ccc3c(Oc4ccc(NC(=O)C5(C(=O)Nc6ccc(F)cc6)CC5)cc4)ccnc3c2)ccn1` [Compound 34, 1-N-[4-[7-(2-Cyanopyridin-4-yl)quinolin-4-yl]oxyphenyl]-1-N′-(4-fluorophenyl)cyclopropane-1,1-dicarboxamide], the IC50 on KDR and at Met was 10 to 100 nM throughout.
On to `Cc1cc2c(Oc3ccc(NC(=O)C4(C(=O)Nc5ccc(F)cc5)CC4)cc3)ccnc2cc1-c1ncc[nH]1` [Compound 120, 1-N′-(4-Fluorophenyl)-1-N-[4-[7-(1H-imidazol-2-yl)-6-methylquinolin-4-yl]oxyphenyl]cyclopropane-1,1-dicarboxamide], for which the IC50 on Met is 10 to 100 nM.
Consider `O=C(Nc1ccc(F)cc1)C1(C(=O)Nc2cc(F)c(Oc3ccnc4cc(-c5cnn(C(F)F)c5)ccc34)cc2F)CC1` [Compound 118, 1-N′-[4-[7-[1-(Difluoromethyl)pyrazol-4-yl]quinolin-4-yl]oxy-2,5-difluorophenyl]-1-N-(4-fluorophenyl)cyclopropane-1,1-dicarboxamide], for which the 50% inhibitory concentration (IC50) against KDR and on Met was 10 to 100 nM in each case.
In the case of `CC(C)n1cc(-c2ccc3c(Oc4ccc(NC(=O)C5(C(=O)Nc6ccc(F)cc6)CC5)cc4)ccnc3c2)cn1` [Compound 21, 1-N′-(4-Fluorophenyl)-1-N-[4-[7-(1-propan-2-ylpyrazol-4-yl)quinolin-4-yl]oxyphenyl]cyclopropane-1,1-dicarboxamide], the figures for the IC50 at KDR and at Met were no more than 10 nM and 10 to 100 nM, respectively.
On the same counts, the results for `O=C(Nc1ccc(F)cc1)C1(C(=O)Nc2ccc(Oc3ccnc4cc(-c5cccnc5O)ccc34)cc2)CC1` [Compound 52, 1-N′-(4-Fluorophenyl)-1-N-[4-[7-(2-hydroxypyridin-3-yl)quinolin-4-yl]oxyphenyl]cyclopropane-1,1-dicarboxamide] are 10 to 100 nM and 10 to 100 nM.
Turning to `O=C(Nc1ccc(F)cc1)C1(C(=O)Nc2ccc(Oc3ccnc4cc(-c5cccnc5)ccc34)c(F)c2)CC1` [Compound 113, 1-N-(4-Fluorophenyl)-1-N′-[3-fluoro-4-(7-pyridin-3-ylquinolin-4-yl)oxyphenyl]cyclopropane-1,1-dicarboxamide], the IC50 against KDR was no more than 10 nM; on Met, 10 to 100 nM.
As for `O=C(Nc1ccc(F)cc1)C1(C(=O)Nc2ccc(Oc3ccnc4cc(-c5cncs5)ccc34)cc2)CC1` [Compound 116, 1-N′-(4-Fluorophenyl)-1-N-[4-[7-(1,3-thiazol-5-yl)quinolin-4-yl]oxyphenyl]cyclopropane-1,1-dicarboxamide], the values for the IC50 against KDR and at Met were no more than 10 nM and 10 to 100 nM, respectively.
On the same counts, the results for `Cc1cc2c(Oc3cc(F)c(NC(=O)C4(C(=O)Nc5ccc(F)cc5)CC4)cc3F)ccnc2cc1-c1ncc[nH]1` [Compound 121, 1-N′-[2,5-Difluoro-4-[7-(1H-imidazol-2-yl)-6-methylquinolin-4-yl]oxyphenyl]-1-N-(4-fluorophenyl)cyclopropane-1,1-dicarboxamide] are 10 to 100 nM and 10 to 100 nM.
For `Cc1cc2c(Oc3ccc(NC(=O)C4(C(=O)Nc5ccc(F)cc5)CC4)cc3F)ccnc2cc1-c1ncc[nH]1` [Compound 122, 1-N′-[3-Fluoro-4-[7-(1H-imidazol-2-yl)-6-methylquinolin-4-yl]oxyphenyl]-1-N-(4-fluorophenyl)cyclopropane-1,1-dicarboxamide], the concentration for half-maximal inhibition (IC50) against KDR and at Met was 10 to 100 nM in each case.
Turning to `O=C(Nc1ccc(F)cc1)C1(C(=O)Nc2ccc(Oc3ccnc4cc(-c5ccc(F)nc5)ccc34)cc2)CC1` [Compound 41, 1-N′-(4-Fluorophenyl)-1-N-[4-[7-(6-fluoropyridin-3-yl)quinolin-4-yl]oxyphenyl]cyclopropane-1,1-dicarboxamide], the IC50 against KDR and at Met was 10 to 100 nM in each case.
In the case of `Cn1ccc(-c2ccc3c(Oc4ccc(NC(=O)C5(C(=O)Nc6ccc(F)cc6)CC5)cc4)ccnc3c2)cc1=O` [Compound 117, 1-N′-(4-Fluorophenyl)-1-N-[4-[7-(1-methyl-2-oxopyridin-4-yl)quinolin-4-yl]oxyphenyl]cyclopropane-1,1-dicarboxamide], the IC50 against KDR is no more than 10 nM; on Met, 10 to 100 nM.
`Cc1cc(-c2ccc3c(Oc4ccc(NC(=O)C5(C(=O)Nc6ccc(F)cc6)CC5)cc4)ccnc3c2)ccn1` [Compound 30, 1-N′-(4-Fluorophenyl)-1-N-[4-[7-(2-methylpyridin-4-yl)quinolin-4-yl]oxyphenyl]cyclopropane-1,1-dicarboxamide]: the IC50 against KDR and on Met was 10 to 100 nM in each case.
With `N#Cc1cncc(-c2ccc3c(Oc4ccc(NC(=O)C5(C(=O)Nc6ccc(F)cc6)CC5)cc4)ccnc3c2)c1` [Compound 40, 1-N-[4-[7-(5-Cyanopyridin-3-yl)quinolin-4-yl]oxyphenyl]-1-N′-(4-fluorophenyl)cyclopropane-1,1-dicarboxamide], the IC50 against KDR and on Met was 10 to 100 nM each time.
On to `O=C(Nc1ccc(F)cc1)C1(C(=O)Nc2ccc(Oc3ccnc4cc(-c5ccc(O)nc5)ccc34)cc2)CC1` [Compound 51, 1-N′-(4-Fluorophenyl)-1-N-[4-[7-(6-hydroxypyridin-3-yl)quinolin-4-yl]oxyphenyl]cyclopropane-1,1-dicarboxamide], for which the 50% inhibitory concentration (IC50) against KDR and on Met was no more than 10 nM each time.
Consider `O=C(Nc1ccc(F)cc1)C1(C(=O)Nc2ccc(Oc3ccnc4cc(-c5cnn6c5CCC6)ccc34)cc2)CC1` [Compound 29, 1-N-[4-[7-(5,6-Dihydro-4H-pyrrolo[1,2-b]pyrazol-3-yl)quinolin-4-yl]oxyphenyl]-1-N′-(4-fluorophenyl)cyclopropane-1,1-dicarboxamide], for which the IC50 on KDR and on Met was 10 to 100 nM throughout.
With `O=C(Nc1ccc(F)cc1)C1(C(=O)Nc2ccc(Oc3ccnc4cc(-c5cnn(C(F)F)c5)ccc34)c(F)c2)CC1` [Compound 123, 1-N′-[4-[7-[1-(Difluoromethyl)pyrazol-4-yl]quinolin-4-yl]oxy-3-fluorophenyl]-1-N-(4-fluorophenyl)cyclopropane-1,1-dicarboxamide], the IC50 against KDR is no more than 10 nM; on Met, 10 to 100 nM.
Turning to `O=C(Nc1ccc(F)cc1)C1(C(=O)Nc2ccc(Oc3ccnc4cc(-c5ccc[n+]([O-])c5)ccc34)cc2)CC1` [Compound 109, 1-N′-(4-Fluorophenyl)-1-N-[4-[7-(1-oxidopyridin-1-ium-3-yl)quinolin-4-yl]oxyphenyl]cyclopropane-1,1-dicarboxamide], the values for the IC50 against KDR and at Met were no more than 10 nM and 10 to 100 nM, respectively.
